By IC50 is commonly meant the concentration that inhibits the measured activity by half. For orientation: bioavailability means the share of a dose that reaches the circulation, judged against a reference dose that is usually intravenous. Lower therefore signals poor availability. One may read the AUC as the area under the concentration-time curve, a measure of exposure. A high value points to high exposure.

Data set [1] addresses T1, DNA polymerase theta (Homo sapiens, UniProt O75417). In words: Inhibition of N-terminal His8-tagged/C-terminal FLAG-tagged full length human DNA polymerase theta ( 1 to 2590 residues) polymerase activity expressed in HEK2936E cells. The data set is classed as cell-based.
A short description of data set [2]: Oral bioavailability in CD-1 mouse at […] measured upto 24 hrs by reverse phase LCMS analysis. In kind it is ADME, organism-based. The note with it: in vivo.
The target in data set [3] is T2, DNA polymerase subunit gamma-1 (Homo sapiens, UniProt P54098).
T2 sequence (P54098 whole entry): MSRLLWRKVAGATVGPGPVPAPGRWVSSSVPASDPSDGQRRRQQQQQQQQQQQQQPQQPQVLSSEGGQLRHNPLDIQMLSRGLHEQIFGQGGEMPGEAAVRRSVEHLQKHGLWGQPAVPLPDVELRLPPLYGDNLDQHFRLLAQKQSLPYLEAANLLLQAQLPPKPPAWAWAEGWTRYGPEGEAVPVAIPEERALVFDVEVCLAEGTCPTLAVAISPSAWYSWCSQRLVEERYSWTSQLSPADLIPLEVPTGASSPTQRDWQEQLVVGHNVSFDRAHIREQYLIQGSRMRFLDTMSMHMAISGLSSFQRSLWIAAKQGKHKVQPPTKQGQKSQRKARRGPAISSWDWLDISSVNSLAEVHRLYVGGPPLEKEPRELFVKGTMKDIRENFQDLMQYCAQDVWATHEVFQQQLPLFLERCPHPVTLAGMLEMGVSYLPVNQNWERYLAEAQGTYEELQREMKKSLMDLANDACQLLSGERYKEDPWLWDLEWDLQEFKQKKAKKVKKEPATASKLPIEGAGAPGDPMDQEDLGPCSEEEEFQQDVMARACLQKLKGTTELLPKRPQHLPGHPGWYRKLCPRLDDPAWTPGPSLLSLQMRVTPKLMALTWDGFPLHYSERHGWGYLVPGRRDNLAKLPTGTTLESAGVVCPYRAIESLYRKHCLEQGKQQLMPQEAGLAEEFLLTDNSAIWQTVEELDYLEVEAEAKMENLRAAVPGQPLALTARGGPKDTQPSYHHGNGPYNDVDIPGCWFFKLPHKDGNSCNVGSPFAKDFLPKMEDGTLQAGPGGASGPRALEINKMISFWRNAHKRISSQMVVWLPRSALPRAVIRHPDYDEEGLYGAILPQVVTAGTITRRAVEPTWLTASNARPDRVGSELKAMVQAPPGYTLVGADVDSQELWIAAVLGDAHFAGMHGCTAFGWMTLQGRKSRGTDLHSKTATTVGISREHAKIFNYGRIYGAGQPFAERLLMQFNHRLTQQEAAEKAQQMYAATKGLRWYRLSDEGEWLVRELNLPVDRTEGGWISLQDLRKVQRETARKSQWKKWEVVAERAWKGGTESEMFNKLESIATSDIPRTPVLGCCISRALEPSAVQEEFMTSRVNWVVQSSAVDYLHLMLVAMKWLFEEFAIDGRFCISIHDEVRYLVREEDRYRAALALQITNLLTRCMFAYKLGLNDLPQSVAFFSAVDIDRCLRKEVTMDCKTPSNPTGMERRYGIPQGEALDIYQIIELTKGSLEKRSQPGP
In words: Inhibition of human DNA polymerase gamma.

Data set [4] in a line: Toxicity in CD-1 mouse xenografted with BRCA2 knock in human HCT-116 cells assessed as drug tolerance at 80 mg/kg, po administered twice a day for 21 days. The data set is classed as organism-based. The note with it: in vivo, 504 h, time 21 day. (Xenograft models place foreign cells or tissue in a host animal.)
Data set [5] in a line: AUC in CD-1 mouse at 20 mg/kg, po measured upto 24 hrs by reverse phase LCMS analysis. The note with it: in vivo. More on the design: time < 24 hrs, dose 20 mg/kg, route po. The data set is classed as ADME, organism-based.
The nature of data set [6]: AUC in CD-1 nude mouse at 80 mg/kg, po administered twice daily and measured on day 7 by HPLC-MS analysis. In kind it is ADME, organism-based. Details: time 7 day, dose 80 mg/kg, route po. The note with it: in vivo.
Data set [7] in a line: Volume of distribution at steady state in CD-1 mouse at 2.5 mg/kg, po or 2.5 mg/kg, iv measured upto 24 hrs by reverse phase LCMS analysis. The data set is classed as ADME, organism-based. The note with it: in vivo.
Data set [8] is described as follows: Toxicity in CD-1 mouse xenografted with BRCA2 knock out human HCT-116 cells assessed as body weight loss at 80 mg/kg, po administered twice a day for 21 days. In kind it is organism-based. The conditions noted are these: in vivo, 504 h, time 21 day.
Data set [9] in a line: Half-life in CD-1 mouse at 2.5 mg/kg, po or 2.5 mg/kg, iv measured upto 24 hrs by reverse phase LCMS analysis. The data set is classed as ADME, organism-based. The note with it: in vivo.
The nature of data set [10]: fCaverage in CD-1 mouse. In kind it is ADME.
Data set [11] can be described thus: Inhibition of Alt-Ej-mediated DNA repair in LIG4 knock out HEK293T cells. The conditions noted are these: hek-293t. In kind it is functional, cell-based, Homo sapiens.
For data set [12], the target named is T1, DNA polymerase theta. In words: Inhibition of human DNA polymerase theta pol domain (1819 to 2590 residues) expressed in Escherichia coli BL21 (DE3) cells preincubated for 15 mins followed by DNA and dNTP addition and measured after 120 mins by Picogreen dye fluorescence intensity analysis.
In another data set the test system is HCT-116. In words: Antiproliferative activity against BRCA2 knock out human HCT-116 cells assessed as inhibition of cell growth incubated for 12 to 14 days with media replacement for every 3 or 4 days. The data set is classed as functional, cell-based.
The nature of data set [13]: Inhibition of MMEJ-mediated DNA repair in CRSIPRR/Cas9-induced wildtype human HCT-116 cells incubated for 24 hrs by PCR analysis. The data set is classed as functional, cell-based.
Data set [14] is described as follows: Toxicity in CD-1 mouse xenografted with BRCA2 knock in human HCT-116 cells assessed as body weight loss at 80 mg/kg, po administered twice a day for 21 days. The conditions noted are these: in vivo, 504 h, time 21 day. In kind it is organism-based.

Molecules are shown by their SMILES. A value given as a limit tells only on which side of the number the result lay.

T1 sequence (O75417 whole entry, the tested form may be a part): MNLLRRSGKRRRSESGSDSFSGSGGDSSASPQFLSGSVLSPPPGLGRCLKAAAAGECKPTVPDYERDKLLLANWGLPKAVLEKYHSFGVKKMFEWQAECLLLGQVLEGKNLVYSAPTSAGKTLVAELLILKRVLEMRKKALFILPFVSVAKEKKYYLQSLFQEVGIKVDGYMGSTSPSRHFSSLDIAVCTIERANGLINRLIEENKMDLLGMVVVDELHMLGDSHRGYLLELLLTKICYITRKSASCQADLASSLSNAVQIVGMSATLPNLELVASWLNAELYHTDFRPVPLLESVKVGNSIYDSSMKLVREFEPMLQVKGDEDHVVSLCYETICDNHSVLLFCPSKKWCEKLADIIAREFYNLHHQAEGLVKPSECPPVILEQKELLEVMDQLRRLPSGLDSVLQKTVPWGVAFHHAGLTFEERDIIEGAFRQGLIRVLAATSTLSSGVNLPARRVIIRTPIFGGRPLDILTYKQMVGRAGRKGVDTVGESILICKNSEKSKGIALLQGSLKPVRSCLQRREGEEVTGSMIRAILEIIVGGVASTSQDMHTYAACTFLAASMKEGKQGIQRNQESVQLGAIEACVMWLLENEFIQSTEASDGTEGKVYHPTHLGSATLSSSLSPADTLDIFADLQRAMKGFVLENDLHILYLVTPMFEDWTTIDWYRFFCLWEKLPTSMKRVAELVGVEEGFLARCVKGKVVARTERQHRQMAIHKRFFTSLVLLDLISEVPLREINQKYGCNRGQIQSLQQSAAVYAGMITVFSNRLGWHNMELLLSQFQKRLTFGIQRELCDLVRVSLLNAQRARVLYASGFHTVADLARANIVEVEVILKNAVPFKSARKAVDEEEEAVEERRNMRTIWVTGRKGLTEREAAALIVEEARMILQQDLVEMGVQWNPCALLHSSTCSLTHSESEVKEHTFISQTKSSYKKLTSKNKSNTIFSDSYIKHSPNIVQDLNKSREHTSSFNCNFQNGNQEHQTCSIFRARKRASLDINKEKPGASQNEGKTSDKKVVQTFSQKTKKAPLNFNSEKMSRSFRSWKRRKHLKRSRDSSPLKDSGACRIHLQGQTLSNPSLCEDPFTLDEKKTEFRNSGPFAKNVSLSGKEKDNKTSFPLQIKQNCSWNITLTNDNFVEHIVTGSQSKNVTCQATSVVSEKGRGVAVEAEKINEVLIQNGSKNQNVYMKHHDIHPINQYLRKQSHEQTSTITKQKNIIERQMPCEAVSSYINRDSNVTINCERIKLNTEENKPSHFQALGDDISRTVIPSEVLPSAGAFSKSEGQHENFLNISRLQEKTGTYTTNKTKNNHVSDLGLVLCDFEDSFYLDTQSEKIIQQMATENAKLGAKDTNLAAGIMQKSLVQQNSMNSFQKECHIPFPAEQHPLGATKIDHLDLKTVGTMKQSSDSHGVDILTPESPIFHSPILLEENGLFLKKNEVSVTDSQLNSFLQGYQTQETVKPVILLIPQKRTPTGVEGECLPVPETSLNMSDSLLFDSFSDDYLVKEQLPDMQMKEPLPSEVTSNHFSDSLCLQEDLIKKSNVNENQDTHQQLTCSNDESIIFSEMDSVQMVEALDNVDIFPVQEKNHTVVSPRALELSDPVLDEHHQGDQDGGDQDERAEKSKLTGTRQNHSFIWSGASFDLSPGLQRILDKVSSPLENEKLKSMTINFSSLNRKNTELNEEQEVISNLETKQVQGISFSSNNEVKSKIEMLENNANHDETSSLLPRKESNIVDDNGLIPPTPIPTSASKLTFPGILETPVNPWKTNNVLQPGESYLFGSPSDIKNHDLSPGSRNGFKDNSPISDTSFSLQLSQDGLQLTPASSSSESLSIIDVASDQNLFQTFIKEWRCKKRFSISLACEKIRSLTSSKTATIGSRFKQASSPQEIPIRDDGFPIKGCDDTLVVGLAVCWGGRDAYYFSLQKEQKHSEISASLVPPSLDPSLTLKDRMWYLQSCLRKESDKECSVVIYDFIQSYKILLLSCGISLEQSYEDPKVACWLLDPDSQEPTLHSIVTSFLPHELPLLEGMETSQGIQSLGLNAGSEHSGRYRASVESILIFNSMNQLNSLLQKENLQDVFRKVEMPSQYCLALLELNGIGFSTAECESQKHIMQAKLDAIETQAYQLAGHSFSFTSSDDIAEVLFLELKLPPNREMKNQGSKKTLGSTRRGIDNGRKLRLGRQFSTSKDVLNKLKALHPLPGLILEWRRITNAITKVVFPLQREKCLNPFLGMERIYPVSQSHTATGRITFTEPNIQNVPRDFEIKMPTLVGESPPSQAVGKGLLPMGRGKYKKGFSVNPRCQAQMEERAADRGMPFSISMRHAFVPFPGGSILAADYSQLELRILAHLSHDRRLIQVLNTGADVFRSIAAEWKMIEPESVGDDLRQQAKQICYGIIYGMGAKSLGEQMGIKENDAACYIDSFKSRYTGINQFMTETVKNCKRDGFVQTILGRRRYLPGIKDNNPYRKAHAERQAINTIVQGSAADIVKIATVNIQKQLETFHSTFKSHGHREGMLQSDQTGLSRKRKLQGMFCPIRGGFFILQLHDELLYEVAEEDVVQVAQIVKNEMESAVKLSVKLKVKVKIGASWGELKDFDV

`Nc1ccc(C#CCN(C(=O)Cc2ncc(C(F)(F)F)cc2C(F)(F)F)c2ccc(F)cc2)nn1`: the IC50 against DNA polymerase theta [1] was 0.55 nM; in data set [3], over 100000 nM; in data set [11], 2150 nM; on DNA polymerase theta [12] it was 5.8 nM; in the data set with HCT-116, 320 nM; in data set [13], 450 nM. The same molecule displayed a bioavailability in data set [2] of 66%. Further, the Activity result in data set [4], in data set [8] and in [14] was “Non-Toxic” throughout. The AUC in data set [5] was determined as 49.7 µM·h. In addition, the AUC at 168 h in data set [6] worked out at 14.7 µM·h. For the same molecule, in data set [7], the Vdss was determined as 1.1 L/kg. In [9], this molecule returned a t1/2 of 24 min. The “f(Cave)” value in [10] was determined as 107 nM.

(Values after ChEMBL document CHEMBL5108047 (J Med Chem, 2022).)
